Measurements from patent US5032614A, “Serotonin antagonist” (Mitsubishi Kasei Corporation, priority 1989, dated 1991).

Key:
[1] = molecular target: T1, serotonin-induced constriction of caudal artery (Rattus norvegicus, UniProt P14842); test: Inhibition test against serotonin-induced constriction of caudal artery in rats; format: cell-based; conditions: Wistar rat caudal artery spiral strip, from shift of serotonin ED50; read-out: Ki (inhibition constant against serotonin-induced constriction)
T1 construct: Caudal artery was removed and spiral strip was prepared; from tissue; host or cells: Wistar rat (male) caudal artery, spiral strip
T1 sequence (P14842 whole entry): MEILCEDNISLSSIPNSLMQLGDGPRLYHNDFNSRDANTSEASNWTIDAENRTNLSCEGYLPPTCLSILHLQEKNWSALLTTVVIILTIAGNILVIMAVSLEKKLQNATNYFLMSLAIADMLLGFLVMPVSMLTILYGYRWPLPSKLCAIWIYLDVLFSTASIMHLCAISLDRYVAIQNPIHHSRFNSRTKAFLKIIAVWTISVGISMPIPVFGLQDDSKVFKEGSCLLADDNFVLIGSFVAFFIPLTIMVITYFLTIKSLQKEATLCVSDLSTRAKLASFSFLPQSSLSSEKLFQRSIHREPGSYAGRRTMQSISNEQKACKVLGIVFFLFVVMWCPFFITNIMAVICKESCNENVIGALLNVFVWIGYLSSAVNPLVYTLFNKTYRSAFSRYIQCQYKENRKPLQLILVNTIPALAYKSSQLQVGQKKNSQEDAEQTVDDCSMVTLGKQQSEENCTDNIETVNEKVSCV
Experimental: (2) Inhibition Test against Serotonin-induced Constriction of Caudal Artery in Rats Wistar strain male rats (300-500 g) were sacrificed by striking the animals at the occiput. Caudal artery was removed and spiral strip was prepared according to the procedure of J. M. van Nueten, The Journal of Pharmacology and Experimental Therapeutics 218(1): 217-230 (1981).
The spirit strip was ligated at both ends with cotton thread and placed in a magunus tube containing 10 ml of Krebs-Henselite solution (37° C., bubbled with a mixture of 95% O2 and 5% CO2). One end of the thread was connected to Isometric Transducer (Nihon Koden-kogyo Kikai). Isometric contraction was measured using Isometric Amplifier (Nihon Koden-kogyo Kikai) under a tension of 0.5 g.
The control contruction by cumulatively added serotonin(final concentration: 10^-9 --10^-5 M) was measured and then the control ED50 value of serotonin was determined. Subsequently, the strip was washed three times with Krebs-Henselite solution and a compound of the invention was added at a suitable concentration (final concentration: 10^-8, 10^-7, 10^-6, or 10^-5 M). Two minutes later, serotonin was cumulatively added at concentrations from 10^-9 to 10^-5 or 10^-3 M, and the ED50 value in the test group was determined.
ED50 values were calculated by "Probit Analysis". In Probit Analysis, an intercept, slope and spontaneous (threshold) reaction ratio of the curve obtained by biological analysis can be calculated according to the following "Probit equation" with highest reliability: [formula] .PHI.: the cumulative distributing relationships of standard normal distribution. […]
x: average dose (concentration of serotonin) y: probability of reaction (contractility rate of vascular smooth muscle) a, b, c: parameter; a, b>0, 1>c>0.
Inhibition constant (Ki) for each compound was determined according to the following equation: [formula]

[2] = molecular target: T2, serotonin receptor (3H-Ketanserin binding, cerebral cortex nucleus-microsome-containing fraction) (Rattus norvegicus, UniProt P14842); test: Receptor-binding test (3H-Ketanserin tracer, rat cerebral cortex receptor fraction); conditions: 3H-Ketanserin 1 nM, Wistar rat cerebral cortex receptor, 37° C. 30 min; read-out: IC50 (50% inhibition of specific binding of the tracer to the receptor)
T2 construct: the resultant nucleus-microsome-containing fraction (=receptor) was stored at -80° C; from tissue; host or cells: Wistar rat (male) cerebral cortex, nucleus-microsome-containing fraction
T2 sequence (P14842 whole entry): as above
Experimental: (1) Receptor-binding Test
(a) Preparation of Receptor
Wistar strain male rats (300-500 g) were killed by decapitation. Cerebral cortex was removed, homogenized in 50 mM Tris-HCl buffer, pH 7.4, and centrifuged at 50,000×g for 20 min at 4° C. After washing precipitates with the same buffer, the resultant nucleus-microsome-containing fraction (=receptor) was stored at -80° C. until use.
The receptor obtained above (0.5 ml, equivalent to 5 mg of tissue) was incubated at 37° C. for 30 min in 0.4 ml of the above-mentioned buffer containing 0.1 ml of ^3 H-Ketanserin tracer (77 Ci/mmol; a final concentration of 1 nM) in the final volume of 1.0 ml. The reaction mixture was filtered under vacuum through a GF/B glass filter (Whatman). After washing the filter with the buffer, radio activity bound to filter was measured by a liquid scintilation spectrophotometer (Aloka, LSC-900) to obtain the total binding activity of the tracer.
Non-specific binding activity of the tracer, i.e., the binding activity of the tracer to materials other than the receptor, was evaluated using the same assay system except for that serotonin was added to the reaction mixture to the final concentration of 1 mM in order to block the binding of the tracer to the receptor. The specific binding activity of the tracer to the receptor was determined by subtracting the non-specific binding activity from the total binding activity.
(c) IC50 (concentration of a test compound requisite for producing a 50% inhibition)
Concentration (ng/ml) of compounds of the invention (serotonin antagonist) which produces a 50% inhibition of specific binding of the tracer to the receptor was determined as follows.
The assay system and procedure as described in (b) were employed except for that amitriphtyline hydrochloride as a control or a compound of the invention was added to the assay system with various concentrations of from 10^-1 to 10^-5 ng/ml. The specific binding activity was determined at each concentration, and a dose-response curve was prepared. A concentration of the compound in ng/ml required for producing 50% inhibition of specific binding of the tracer to the receptor (IC50) was determined on the basis of the dose-response curve.

Row | SMILES | Ki [1] [µM] | IC50 [2] [µM]
1 | CN(C)CCOc1ccccc1CCc1ccccc1 [Compound No. 1] | 0.00633 | 0.0962
2 | CN(C)CCCOc1ccccc1CCc1ccccc1 [Compound No. 2] | 0.00455 | 0.0338
3 | CN(C)CCCCOc1ccccc1CCc1ccccc1 [compound 3] | 0.00978 | 0.115
4 | CN(C)CCCCCOc1ccccc1CCc1ccccc1 [compound 4] | 0.0376 | 0.377
5 | CN(C)CCCCCCOc1ccccc1CCc1ccccc1 [compound 5] | 0.0749 | 0.152
6 | CNCCCCOc1ccccc1CCc1ccccc1 [compound 6] | 0.0706 | 0.156
7 | NCCCCOc1ccccc1CCc1ccccc1 [compound 7] | 0.28 | –
8 | c1ccc(CCc2ccccc2OCCCCN2CCCCC2)cc1 [compound 8] | 0.0676 | –
9 | O=C(O)C1CCN(CCCCOc2ccccc2CCc2ccccc2)CC1 [compound 9] | 0.198 | –
10 | CN(C)CCCCOc1cccc(CCc2ccccc2)c1 [compound 10] | 0.517 | –
11 | CN(C)CCCCOc1ccc(CCc2ccccc2)cc1 [compound 11] | 0.416 | –
12 | COc1cccc(CCc2ccccc2OCCCCN(C)C)c1 [compound 12] | 0.0131 | –
13 | CN(C)CCCOc1ccccc1CCc1ccc(N(C)C)cc1 [compound 13] | 0.0233 | –
14 | COc1cccc(CCc2ccccc2OCC(CN(C)C)OC(=O)CCC(=O)O)c1 (stereo not drawn) [compound 14] | 0.0178 | –
15 | COc1cccc(CCc2ccccc2OCC(O)CN(C)C)c1 (stereo not drawn) [compound 15] | 0.00116 | –
16 | COc1cccc(CCc2ccccc2OCC(CN(C)C)OCCC(=O)O)c1 (stereo not drawn) [compound 16] | 0.00105 | –
17 | CN(C)CC(COc1ccccc1CCc1cccc(F)c1)OC(=O)CCC(=O)O (stereo not drawn) [compound 17] | 0.0413 | –
18 | CN(C)CC(O)COc1ccccc1CCc1ccccc1 (stereo not drawn) [compound 18] | 0.0139 | –
19 | CN(C)CCCCOc1ccccc1CCc1cccc(Cl)c1 [compound 19] | 0.0135 | –
20 | CN(C)CCCCOc1ccc(Cl)cc1CCc1ccccc1 [compound 20] | 0.0257 | –
21 | COc1cccc(CCc2ccccc2)c1OCCCCN(C)C [compound 21] | 0.0857 | –
